Literature values as cited in patent EP3305282A2, “COMPOSITION OF PRANLUKAST-CONTAINING SOLID PREPARATION WITH IMPROVED BIOAVAILABILITY AND METHOD FOR PREPARING SAME” (Sama Pharm Co., Ltd., priority 2015, dated 2016).

Details: pranlukast drug substance, BCS Class II

Q: With O=C(Nc1cccc2c(=O)cc(-c3nnn[nH]3)oc12)c1ccc(OCCCCc2ccccc2)cc1 [Pranlukast, 4-oxo-8-[4-(4-phenylbutoxy)benzoylamino]-2-(tetrazol-5-yl)-4H-1-benzopyran hemihydrate] as the compound, how does the solubility read?
A: 1.2 µg/mL
